{
  "source": "paper PMC12284513",
  "about": "“Unique structural features define the decarboxylation activity of a CYP152 fatty acid decarboxylase from Lacicoccus alkaliphilus” (The Journal of Biological Chemistry, 2025)",
  "key": {"OleTJE L176I": {"system": "OleTJE L176I", "assay": "Fatty acid bioconversion with H2O2 as co-substrate (alkene by GC-MS, hydroxy products by HPLC-MS)", "type": "biochemical, Jeotgalicoccus sp. 8456", "conditions": "for Decarboxylation activity of OleTJE L176I compared to that of OleTJE wild type: 200 μM substrate, 400 μM H2O2", "procedure": "A reaction was typically quenched by adding 2-fold reaction volume of ethyl acetate which contained 30 μM of tetradecane as an internal standard. The reaction mixtures were vortexed for 1 min and then centrifuged at 12,000 rpm, 4 °C for 10 min to separate an organic and an aqueous phase. The organic phase was injected into an Agilent gas chromatography system (GC-MS) (Agilent 7890B equipped with Agilent 5977B MSD) equipped with a HP5-MS column (30 m × 0.25 mm × […]) (Agilent), and helium was used as a carrier gas. The oven conditions for C10FA and 1-nonene (C9 alkene) were ramped up from 60 to 240 °C with a rate of 19 ° C min^−1 and held at 240 °C for 1 min. […] For C18FA and 1-heptadecene (C17 alkene), the oven was ramped up from 60 to 250 °C with a rate of 22 °C min^−1 and hold at 250 °C for 4 min. For C20FA and 1-nonadecene (C19 alkene), the oven was ramped up from 100 to 250 °C with a rate of 23 °C min^−1 and held at 250 °C for 6 min. The response of target compounds was normalized with signals of the internal standard. The concentration of each compound was calculated based on a standard calibration curve.\nFor analyzing hydroxylated products of fatty acids, the reactions were quenched by adding an equal volume of acetonitrile, centrifuged, and filtrated. The analytes (10 μl) were injected into a liquid chromatography coupled with diode array and single quadrupole mass spectroscopy detection (LC-DAD/MS) (Agilent 1290 Infinity II LC System equipped with DAD, Single Quadrupole Mass Spectrometers system). A Zorbax eclipse plus C18 column (5 μm, 4.6 × 250 mm) (Agilent Technology) was used for separation. The mobile phase system A was water with 0.1% (v/v) formic acid, and system B was acetonitrile with 0.1% (v/v) formic acid.\nAll fatty acids were prepared in absolute EtOH at 20 mM as stock solutions. The reaction was carried out in 50 mM NaH2PO4 buffer with 300 mM NaCl, pH 7.5, with 2.5 or 10% (v/v) of EtOH, 200 μM of a substrate, and 400 μM of H2O2. The reactions were performed at 25 °C for 1 h, and then the alkene product was measured using GC-MS after the reactions were quenched and extracted with two-fold volume of ethyl acetate.\nSite-directed mutagenesis of I178L of OleTLA and […] of OleTJE was done with overlaping PCR that used OleTLA or OleTJE plasmids as templates (Table S4). The PCR products were treated with DpnI in cut smart buffer at 37 °C for 16 h, transformed into E. coli XL−1 blue competent cells and grown at 37 °C on LB agar containing 50 μg/ml ampicillin. The plasmids of selected colonies were extracted for sequence verification. The plasmid containing the correct sequence was transformed into E. coli BL21 (DE3) for enzyme expression. The expression and purification methods of variants were the same as those of wild-type OleTLA and OleTJE."}, "[1]": {"system": "Escherichia coli BL21 (DE3) cells co-transformed with pGro7, FdR/FdX system, and OleTLA or OleTJE", "assay": "In vivo bioconversion of C16FA with the FdR/FdX redox partner system", "type": "cell-based", "conditions": "128.22 mg/L of C16FA added, cells overexpressing OleTLA and OleTJE", "procedure": "The pRSFDuet−1 vector containing FdR/FdX and OleTLA or OleTJE was transformed into competent E. coli BL21 (DE3) containing a pGro7 plasmid. The transformed cells were incubated in LB broth at 37 °C, 220 rpm for 1.5 h, spread on LB agar with ampicillin (50 μg/ml), kanamycin (34 μg/ml), and chloramphenicol (20 μg/ml), and incubated at 37 °C for overnight. A single colony was inoculated into a starter culture in an auto-induction medium with appropriate antibiotics and 1% (w/v) of glucose. The culture was then incubated at 37 °C, 220 rpm overnight. Then, 1% (v/v) of the starter was inoculated into the auto-induction medium in the presence of ammonium iron (III) citrate (20 ug/ml), L-arabinose (2 mg/ml), ampicillin (50 μg/ml), kanamycin (34 μg/ml), and chloramphenicol (20 μg/ml), hemin (0.05 mM) and δ-ALA (0.5 mM) and then grown at 37 °C, 220 rpm until OD600 reached about 0.8 to 1.0. […] At a specific time point, the culture medium was sampled and extracted by adding two-fold ethyl acetate with tetradecane as an internal standard. The mixture was vortexed and centrifuged at 4 °C for 10 min. The organic phase was collected and injected into the GC-MS system."}, "[2]": {"assay": "Thermofluor assay of enzyme melting temperature", "type": "physicochemical", "conditions": "reductase enzymes of the redox partner systems (Fig. S16)", "procedure": "The reactions containing 10 μM of enzyme, 25X of SYPRO Orange Protein Gel Stain solution in 25 μl of a storage buffer were carried out in a CFX96 Real-Time (Bio-Red) Thermal Cycle. The temperature of the experiments was raised from 30 to 80 °C at a continuous rate of 1 °C min^−1. The temperature at which half of the total amount of protein transitioned into an unfolded form is designated as the melting temperature."}},
  "data": [
    {"molecule": "CCCCCCCCCC(=O)O", "note": "[C10FA, decanoic acid]", "values": [
      {"measurement": "Decarboxylation activity of OleTJE L176I compared to that of OleTJE wild type", "setting": "OleTJE L176I", "result": "less than 1%"}
    ]},
    {"molecule": "CCCCCCCCCCCC(=O)O", "note": "[C12FA, dodecanoic acid]", "values": [
      {"measurement": "Decarboxylation activity of OleTJE L176I compared to that of OleTJE wild type", "setting": "OleTJE L176I", "result": "less than 1%"}
    ]},
    {"molecule": "C=CCCCCCCCCCCCCC", "note": "[C15 alkene, 1-pentadecene]", "values": [
      {"measurement": "C15 alkene produced", "setting": "[1]; after 24 h", "result": 0.42, "unit": "mg/L"},
      {"measurement": "C15 alkene produced", "setting": "[1]; after 48 h", "result": "around 1.26 mg/L"}
    ]},
    {"molecule": "CCCCCCCCCCCCCCCCCC(=O)O", "note": "[C18FA, octadecanoic acid]", "values": [
      {"measurement": "Decarboxylation activity of OleTJE L176I compared to that of OleTJE wild type", "setting": "OleTJE L176I", "result": "less than 5%"}
    ]},
    {"molecule": "CCCCCCCCCCCCCCCCCCCC(=O)O", "note": "[C20FA, icosanoic acid]", "values": [
      {"measurement": "Decarboxylation activity of OleTJE L176I compared to that of the wild-type enzyme", "setting": "OleTJE L176I; 2.5% (v/v) EtOH", "result": 37, "unit": "%"},
      {"measurement": "Decarboxylation activity of OleTJE L176I compared to that of the wild-type enzyme", "setting": "OleTJE L176I; 10% (v/v) EtOH", "result": 23, "unit": "%"}
    ]},
    {"molecule": "FdR: ferredoxin reductase, redox partner, gene from Escherichia coli K-12 (protein, UniProt P28861 2-248, looked up) Flavodoxin/ferredoxin--NADP …: ADWVTGKVTKVQNWTDALFSLTVHAPVLPFTAGQFTKLGLEIDGERVQRAYSYVNSPDNPDLEFYLVTVPDGKLSPRLAALKPGDEVQVVSEAAGFFVLDEVPHCETLWMLATGTAIGPYLSILQLGKDLDRFKNLVLVHAARYAADLSYLPLMQELEKRYEGKLRIQTVVSRETAAGSLTGRIPALIESGELESTIGLPMNKETSHVMLCGNPQMVRDTQQLLKETRQMTKHLRRRPGHMTAEHYW", "values": [
      {"measurement": "Tm", "setting": "[2]", "result": 60, "unit": "°C"}
    ]},
    {"molecule": "CamA: putidaredoxin reductase, known redox partner, from Pseudomonas putida (protein, UniProt P16640 1-422, looked up) Putidaredoxin reductase CamA: MNANDNVVIVGTGLAGVEVAFGLRASGWEGNIRLVGDATVIPHHLPPLSKAYLAGKATAESLYLRTPDAYAAQNIQLLGGTQVTAINRDRQQVILSDGRALDYDRLVLATGGRPRPLPVASGAVGKANNFRYLRTLEDAECIRRQLIADNRLVVIGGGYIGLEVAATAIKANMHVTLLDTAARVLERVTAPPVSAFYEHLHREAGVDIRTGTQVCGFEMSTDQQKVTAVLCEDGTRLPADLVIAGIGLIPNCELASAAGLQVDNGIVINEHMQTSDPLIMAVGDCARFHSQLYDRWVRIESVPNALEQARKIAAILCGKVPRDEAAPWFWSDQYEIGLKMVGLSEGYDRIIVRGSLAQPDFSVFYLQGDRVLAVDTVNRPVEFNQSKQIITDRLPVEPNLLGDESVPLKEIIAAAKAELSSA", "values": [
      {"measurement": "Tm", "setting": "[2]", "result": 50, "unit": "°C"}
    ]}
  ]
}
